Measured values published in patent US6979686B1, “Substituted pyrazoles as p38 kinase inhibitors” (Pharmacia Corporation, priority 2001, dated 2005).
Like-named read-outs stand apart in the source and are kept apart here.

Molecular target: T1, human p38 kinase alpha (Homo sapiens, UniProt Q16539)
T1 construct: GST (N, cleaved yes); made in house; host or cells: E. coli DH10B
Test: p38 kinase in vitro assay, phosphorylation of biotinylated PHAS-I with 32P-ATP
Type: biochemical
Settings: for P38 alpha kinase IC50, uM or % inhib @ conc. (uM): % inhib: @ 10.0 uM
Experimental: The coding region of the human p38a cDNA was obtained by PCR-amplification from RNA isolated from the human monocyte cell line THP.1. […] Random primer, dNTP's and Superscript™ reagents were all purchased from Life-Technologies, Gaithersburg, Mass. The reaction was incubated at 42° C. for 1 hour. Amplification of p38 cDNA was performed by aliquoting 5 μl of the reverse transcriptase reaction into a 100 μl PCR reaction containing the following: 80 μl dH2O, 2 μl 50 mM DNTP's, 1 μl each of forward and reverse primers (50 pmol/μl), 10 μl of 10×buffer and 1 μl Expand™ polymerase (Boehringer Mannheim). The PCR primers incorporated BamHI sites onto the 5′ and 3′ end of the amplified fragment, and were purchased from Genosys. […] The PCR amplification was carried out in a DNA Thermal Cycler (Perkin Elmer) by repeating 30 cycles of 94° C. for 1 minute, 60° C. for 1 minute and 68° C. for 2 minutes. After amplification, excess primers and unincorporated dNTP's were removed from the amplified fragment with a Wizard™ PCR prep (Promega) and digested with BamHI (New England Biolabs). The BamHI digested fragment was ligated into BamHI digested PGEX 2T plasmid DNA (PharmaciaBiotech) using T-4 DNA ligase (New England Biolabs) as described by T. Maniatis, Molecular Cloning: A Laboratory Manual, 2nd ed. […] The ligation reaction was transformed into chemically competent E. coli DH10B cells purchased from Life-Technologies following the manufacturer's instructions. Plasmid DNA was isolated from the resulting bacterial colonies using a Promega Wizard™ miniprep kit.
Expression of Human p38a:
Overnight cultures were grown in-Luria Broth (LB) containing […] ampicillin. The next day, 500 ml of fresh LB was inoculated with 10 ml of overnight culture, and grown in a 2 liter flask at 37° C. with constant shaking until the culture reached an absorbance of 0.8 at 600 nm. Expression of the fusion protein was induced by addition of isopropyl b-D-thiogalactosidse (IPTG) to a final concentration of 0.05 mM. The cultures were shaken for three hours at room temperature, and the cells were harvested by centrifugation. The cell pellets were stored frozen until protein purification.
Purification of p38 Kinase-α:
All chemicals were from Sigma Chemical Co. unless noted. Twenty grams of E. coli cell pellet collected from five 1 L shake flask fermentations was resuspended in a volume of PBS (140 mM NaCl, 2.7 mM KCl, 10 mM Na2HPO4, 1.8 mM KH2PO4, pH 7.3) up to 200 ml. The cell suspension was adjusted to 5 mM DTT with 2 M DTT and then split equally into five 50 ml Falcon conical tubes. The cells were sonnicated (Ultrasonics model W375) with a 1 cm probe for 3×1 minutes (pulsed) on ice. Lysed cell material was removed by centrifugation (12,000×g, 15 minutes) and the clarified supernatant applied to glutathione-sepharose resin (Pharmacia).
Glutathione-sepharose Affinity Chromatography:
The resin was collected by centrifugation (600×g, 5 min) and washed with 2×150 ml PBS/1% Triton X-100, followed by 4×40 ml PBS. To cleave the p38 kinase from the GST-p38 fusion protein, the glutathione-sepharose resin was resuspended in 6 ml PBS containing 250 units thrombin protease (Pharmacia, specific activity>7500 units/mg) and mixed gently for 4 hours at room temperature. The glutathione-sepharose resin was removed by centrifugation (600×g, 5 min) and washed 2×6 ml with PBS. The PBS wash fractions and digest supernatant containing p38 kinase protein were pooled and adjusted to 0.3 mM PMSF.
Mono O Anion Exchange Chromatography:
The thrombin-cleaved p38 kinase was further purified by FPLC-anion exchange chromatography.

[1] = in vitro P38-alpha kinase inhibition, read-out: P38 alpha kinase IC50
[2] = in vitro P38-alpha kinase, read-out: P38 alpha kinase IC50

T1 sequence (Q16539 whole entry): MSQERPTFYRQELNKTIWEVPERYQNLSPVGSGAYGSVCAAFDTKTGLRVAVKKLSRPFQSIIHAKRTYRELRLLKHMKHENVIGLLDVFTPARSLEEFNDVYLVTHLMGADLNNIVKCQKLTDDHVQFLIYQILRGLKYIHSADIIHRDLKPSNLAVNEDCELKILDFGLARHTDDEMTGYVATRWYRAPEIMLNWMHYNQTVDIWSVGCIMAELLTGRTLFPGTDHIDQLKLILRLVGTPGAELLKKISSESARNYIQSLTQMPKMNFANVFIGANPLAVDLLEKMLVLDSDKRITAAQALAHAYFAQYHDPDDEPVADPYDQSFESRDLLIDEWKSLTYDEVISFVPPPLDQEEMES

Row | IC50 [1] | IC50 [2] | SMILES | other results
1 | 360 nM | – | CC(NS(=O)(=O)c1cccc2c(N(C)C)cccc12)c1[nH]nc(-c2ccc(F)cc2)c1-c1ccncc1 (stereo not drawn) [Example B-0621] | –
2 | 830 nM | – | CCN(CC)C(=O)N[C@H](C)c1[nH]nc(-c2ccc(F)cc2)c1-c1ccncc1 [Example B-0420] | –
3 | < 100 nM | – | CC(NS(=O)(=O)c1cccc(C(F)(F)F)c1)c1[nH]nc(-c2ccc(F)cc2)c1-c1ccncc1 (stereo not drawn) [Example B-0648] | –
4 | – | – | O=S(=O)(NCc1[nH]nc(-c2ccc(F)cc2)c1-c1ccncc1)c1cccc2cccnc12 [Example B-0116] | P38 alpha kinase % inhib @ conc. (@ 1.0 uM): 73.0% @
5 | – | – | CC(C)C(=O)NCCCc1[nH]nc(-c2ccc(F)cc2)c1-c1ccncc1 [Example B-1160] | P38 alpha kinase % inhib @ conc. (uM) (@ 1.0 uM): 79.0% @
6 | – | – | O=C(NCCCc1[nH]nc(-c2ccc(F)cc2)c1-c1ccncc1)c1cnc2ccccc2n1 [Example B-1189] | P38 alpha kinase % inhib @ conc. (uM) (@ 1.0 uM): 68.0% @
7 | 470 nM | – | CC(NS(=O)(=O)c1ccc(S(=O)(=O)c2ccccc2)s1)c1[nH]nc(-c2ccc(F)cc2)c1-c1ccncc1 (stereo not drawn) [Example B-0665] | –
8 | < 100 nM | – | O=S(=O)(NCCc1[nH]nc(-c2ccc(F)cc2)c1-c1ccncc1)c1cccc(Br)c1 [Example B-1083] | –
9 | – | 100 nM | CC(=O)Nc1ccc(S(=O)(=O)NCCCc2[nH]nc(-c3ccc(F)cc3)c2-c2ccncc2)cc1 [Example B-1236] | –
10 | 1300 nM | – | O=S(=O)(NC(Cc1ccccc1)c1[nH]nc(-c2ccc(F)cc2)c1-c1ccncc1)c1cccs1 (stereo not drawn) [Example B-0720] | –
11 | – | < 100 nM | COc1ccc(Br)cc1S(=O)(=O)NCc1[nH]nc(-c2ccc(F)cc2)c1-c1ccncc1 [Example B-0249] | –
12 | – | – | CCCCCCCOc1ccc(NC(=O)Cn2nc(-c3ccc(F)cc3)c(-c3ccncc3)c2C)cc1 [Example B-2452] | P38 alpha kinase IC50, uM or % inhib @ conc. (uM): % inhib: 89.0% @
13 | – | 40 nM | O=S(=O)(NCCCc1[nH]nc(-c2ccc(F)cc2)c1-c1ccncc1)c1cc(Cl)ccc1Cl [Example B-1243] | –
14 | – | 38 nM | Cc1ccc(S(C)(=O)=O)cc1S(=O)(=O)NCCCc1[nH]nc(-c2ccc(F)cc2)c1-c1ccncc1 [Example B-1296] | –
15 | – | < 100 nM | C[C@@H](NS(=O)(=O)/C=C/c1ccccc1)c1[nH]nc(-c2ccc(F)cc2)c1-c1ccncc1 [Example B-0388] | –
16 | – | – | Fc1ccc(-c2[nH]ncc2-c2ccnc(Nc3ccccc3F)n2)cc1 [Example A-325, N-(2-fluorophenyl)-4-[3-(4-fluorophenyl)-1H-pyrazol-4-yl]-2-pyrimidinamine] | IC50 (Table 8, 1% DMSO, read-out: p38α Kinase Assay IC50): 21 nM
17 | 610 nM | – | CC(=O)OCC(=O)NC(Cc1ccccc1)c1[nH]nc(-c2ccc(F)cc2)c1-c1ccncc1 (stereo not drawn) [Example B-0829] | –
18 | – | – | Cc1c(-c2ccncc2)c(-c2ccc(F)cc2)nn1CC(=O)Nc1cc(F)cc(F)c1 [Example B-2438] | P38 alpha kinase IC50, uM or % inhib @ conc. (uM): % inhib: 75.0% @
19 | 810 nM | – | CC(NC(=O)N(C)c1ccccc1)c1[nH]nc(-c2ccc(F)cc2)c1-c1ccncc1 (stereo not drawn) [Example B-0586] | –
20 | 4300 nM | – | O=C(NC(Cc1ccccc1)c1[nH]nc(-c2ccc(F)cc2)c1-c1ccncc1)c1ccc(I)cc1 (stereo not drawn) [Example B-0839] | –
21 | – | – | O=S(=O)(Cc1ccccc1)NCCc1[nH]nc(-c2ccc(F)cc2)c1-c1ccncc1 [Example B-1017] | P38 alpha kinase % inhib @ conc. (uM) (@ 1.0 uM): 96.0% @
22 | < 100 nM | – | C[C@@H](NS(=O)(=O)c1ccc(Br)cc1)c1[nH]nc(-c2ccc(F)cc2)c1-c1ccncc1 [Example B-0432] | –
23 | – | 270 nM | O=C(NCCCc1[nH]nc(-c2ccc(F)cc2)c1-c1ccncc1)c1ccc(Cl)cc1Cl [Example B-1345] | –
24 | – | < 100 nM | O=S(=O)(NCc1[nH]nc(-c2ccc(F)cc2)c1-c1ccncc1)c1ccc(-c2ccccc2)cc1 [Example B-0256] | –
25 | 22000 nM | – | O=C(Nc1ccccc1)NC(Cc1ccccc1)c1[nH]nc(-c2ccc(F)cc2)c1-c1ccncc1 (stereo not drawn) [Example B-0782] | –
26 | – | 2010 nM | O=S(=O)(c1ccc(Cl)s1)N1CCC(c2[nH]nc(-c3ccc(F)cc3)c2-c2ccncc2)CC1 [Example B-1438] | –

Row | IC50 [1] | IC50 [2] | SMILES | other results
27 | < 100 nM | – | C[C@@H](NS(=O)(=O)c1cccc(Br)c1)c1[nH]nc(-c2ccc(F)cc2)c1-c1ccncc1 [Example B-0455] | –
28 | 510 nM | – | O=C(NC(Cc1ccccc1)c1[nH]nc(-c2ccc(F)cc2)c1-c1ccncc1)N1CCOCC1 (stereo not drawn) [Example B-0727] | –
29 | – | 47 nM | CS(=O)(=O)c1ccc(S(=O)(=O)N2CCC(c3[nH]nc(-c4ccc(F)cc4)c3-c3ccncc3)CC2)cc1 [Example B-1476] | –
30 | – | – | Cc1c(-c2ccncc2)c(-c2ccc(F)cc2)nn1CC(=O)N(CCc1ccccc1)CCc1ccccn1 [Example B-2402] | P38 alpha kinase IC50, uM or % inhib @ conc. (uM): % inhib: 43.0% @
31 | – | – | Cc1c(-c2ccncc2)c(-c2ccc(F)cc2)nn1CC(=O)Nc1cccc(SC(F)(F)F)c1 [Example B-2459] | P38 alpha kinase IC50, uM or % inhib @ conc. (uM): % inhib: 82.0% @
32 | – | – | C=CCOC(=O)NCCc1[nH]nc(-c2ccc(F)cc2)c1-c1ccncc1 [Example B-0985] | P38 alpha kinase % inhib @ conc. (uM) (@ 1.0 uM): 86.0% @
33 | 60 nM | – | CC(NS(=O)(=O)c1c(Cl)cccc1Cl)c1[nH]nc(-c2ccc(F)cc2)c1-c1ccncc1 (stereo not drawn) [Example B-0630] | –
34 | – | – | Cc1c(-c2ccncc2)c(-c2ccc(F)cc2)nn1CC(=O)Nc1ccccc1Oc1ccc(Cl)cc1 [Example B-2449] | P38 alpha kinase IC50, uM or % inhib @ conc. (uM): % inhib: 86.0% @
35 | – | 140 nM | O=C(c1ccccc1C(F)(F)F)N1CCC(c2[nH]nc(-c3ccc(F)cc3)c2-c2ccncc2)CC1 [Example B-1399] | –
36 | – | – | CCOC(=O)CCNC(=O)NCCc1[nH]nc(-c2ccc(F)cc2)c1-c1ccncc1 [Example B-0947] | P38 alpha kinase % inhib @ conc. (uM) (@ 1.0 uM): 69.0% @
37 | – | – | Cc1[nH]nc(-c2ccc(Cl)cc2Cl)c1-c1ccncc1 [Example A-50] | IC50 (activated human p38 kinase alpha, PHAS-I substrate, 50 μM unlabeled ATP, read-out: p38 kinase IC50): 2300 nM
38 | < 100 nM | – | C[C@@H](NS(=O)(=O)c1cccc(Cl)c1)c1[nH]nc(-c2ccc(F)cc2)c1-c1ccncc1 [Example B-0462] | –
39 | 850 nM | – | CC(Oc1ccccc1)C(=O)NC(C)c1[nH]nc(-c2ccc(F)cc2)c1-c1ccncc1 (stereo not drawn) [Example B-0558] | –
40 | – | 12900 nM | N#Cc1ccccc1S(=O)(=O)NCCCc1[nH]nc(-c2ccc(F)cc2)c1-c1ccncc1 [Example B-1255] | –
41 | < 100 nM | – | C[C@@H](NS(=O)(=O)c1ccc(Cl)cc1)c1[nH]nc(-c2ccc(F)cc2)c1-c1ccncc1 [Example B-0433] | –
42 | 1020 nM | – | O=C(NC(Cc1ccccc1)c1[nH]nc(-c2ccc(F)cc2)c1-c1ccncc1)C1CCCC1 (stereo not drawn) [Example B-0852] | –
43 | – | < 100 nM | O=C(N1CCC(c2[nH]nc(-c3ccc(F)cc3)c2-c2ccncc2)CC1)C(F)(F)F [Example B-1429] | –
44 | – | 2530 nM | O=S(=O)(c1cc(Cl)cc(Cl)c1)N1CCC(c2[nH]nc(-c3ccc(F)cc3)c2-c2ccncc2)CC1 [Example B-1453] | –
45 | – | 140 nM | O=S(=O)(NCCCc1[nH]nc(-c2ccc(F)cc2)c1-c1ccncc1)c1ccc(Cl)cc1 [Example B-1238] | –
46 | 950 nM | – | Cc1ccc(S(=O)(=O)NC(Cc2ccccc2)c2[nH]nc(-c3ccc(F)cc3)c2-c2ccncc2)cc1 (stereo not drawn) [Example B-0766] | –
47 | 380 nM | – | CCCCS(=O)(=O)NC(C)c1[nH]nc(-c2ccc(F)cc2)c1-c1ccncc1 (stereo not drawn) [Example B-0571] | –
48 | – | 13 nM | O=C(NCCCc1[nH]nc(-c2ccc(F)cc2)c1-c1ccncc1)c1c(F)cccc1F [Example B-1352] | –
49 | – | 11 nM | Cc1c(-c2ccncc2)c(-c2ccc(F)cc2)nn1CC(=O)NCCc1ccc(Cl)c(Cl)c1 [Example B-2303] | –
50 | – | – | O=C(NCCc1ccccc1)NCCc1[nH]nc(-c2ccc(F)cc2)c1-c1ccncc1 [Example B-1044] | P38 alpha kinase % inhib @ conc. (uM) (@ 1.0 uM): 94.0% @
51 | – | 930 nM | Cc1c(-c2ccncc2)c(-c2ccc(F)cc2)nn1CC(=O)NCCc1ccc(F)cc1 [Example B-2271] | –
